What all share (assay type): in vivo, mouse
In test [1] the test system is osteocytes. In words: Endocytosis Inhibition Experiment: Dyngo4a or MβCD pre-incubation before C'Dot injection and clearance imaging. The settings on record: for changes in uptake and retention of C'Dots into osteocytes (FIG. 17): RGD and PEG C'Dots; for number of cells visualized and quantified at the initial imaging timepoint compared to untreated control: RGD-C'Dots, 30 minute preincubation of drug. As for the experimental part:
C'Dot Injection and Incubation: Mice were anesthetized with 2-3% isoflurane mixed with medical grade air in an induction chamber for 3 minutes prior to injection. During injection, mice were kept under 2% isoflurane with a nose cone. A 10 μL subcutaneous injection of 10 μM C'Dots was then administered over the third metatarsal (MT3). C'Dots were incubated for 1 hour prior to MT3 isolation (n=4-5/group/sex). Mice were allowed normal cage activity during their incubation time, and were re-anesthetized immediately before MT3 isolation.
C'Dot Imaging: C'Dot fluorescent signal inside the MT3 was visualized with multiphoton microscopy (MPM) (Bergamo II, Thorlabs) as previously described (Matthews 2023). Briefly, a 20× immersion objective (XLUMPLFLN, Olympus), 1090 nm wavelength excitation, and a >647 nm longpass filter acquisition were used for Cy5 encapsulated C'Dots. Images were captured at 1024×1024 pixel density and 0.588 μm pixel resolution. For the C'Dot clearance study, a 35 μm z-stack was taken for each mouse, starting 20 μm beneath the bone surface, with 0.3 μm steps between each slice and 7 frame averaging per slice. These z-stacks were taken every 15 minutes for almost 3 hours after the initial 1 hour incubation.
C'Dot Image Analysis: Z-stacks were analyzed in ImageJ (NIH) as previously described (Matthews 2023). Briefly, a macro was created to interpolate the regions of interest across the z-stack as well as filter the images. Then 3D segmentation was run, creating objects for all cell volumes over a threshold intensity. The lower bound for threshold intensity was established as the mean plus 3× standard deviation of background fluorescence. Segmented objects were then filtered by surface area (>1000 pixels) to ensure only full cell volumes were counted, and mean intensity for each object was quantified using the 3D manager tool. Intensities were normalized to background within each z-stack.
Endocytosis Inhibition Experiment: The small molecule Dyngo4a was used as a potent Dynasore analogue to evaluate the impact of dynamin-mediated endocytosis inhibition. A pre-incubation of Dyngo4a (10 μL, 30 μM) was subcutaneously injected above the MT3 30 minutes prior to C'Dot injection and subsequent imaging. Dyngo4a was diluted from a stock solution in DMSO to the working concentration in 1×PBS. Dyngo4a was kept at […] and was defrosted prior to use. Methyl-β-cyclodextrin (MβCD) was used as a depletor of plasma membrane cholesterol to evaluate the impact of cholesterol-mediated, lipid raft-based endocytosis inhibition. A pre-incubation of MβCD (10 μL, 10 mM) was subcutaneously injected 30 minutes before C'Dot injection. MβCD was diluted from a powder in 1×PBS. MβCD was kept at 4 C and warmed to room temperature prior to use. Both drugs were tested across all groups: male and female, PEG- and RGD-C'Dots (n=4-5/group/sex).
Statistical Analyses: Clearance study analysis was done using a student's t-test, 2-way ANOVAs, and regression analyses, including non-linear (One Phase Decay) and linear. Analyses were performed in GraphPad Prism version 9.0 for Mac OS X (GraphPad Software).
METHODS: Silica core poly(ethylene glycol) shell (core-shell) nanoparticles covalently encapsulating Cy5 dye (PE G-C'Dots) were created using a modified Stober condensation in water. RGD-C'Dots were created by surface functionalizing C'Dot surface with amino acid motifs that bind to the extracellular RGD domain of integrin proteins. Skeletally mature C57BL/6J mice age 16-18 weeks were used for these studies (n=4-5/group/sex). C'Dot Injections: Under inhaled isoflurane anesthesia, PEG- or RGD-C'Dots were injected subcutaneously above the third metatarsal (MT3) in the mouse hind paw at a concentration of 10 μM (FIG. 9). C'Dots were incubated for 45 minutes with mice allowed normal cage activity. […]

The subject of test [2] is osteocytes. Kind of test: Quantification of C'Dot Subcellular Localization within osteocyte cell bodies. As for the experimental part:
Quantification of C'Dot Subcellular Localization: Individual frames from z-stacks taken after a 45 minute C'Dot incubation were analyzed for subcellular localization within osteocytes under different study conditions. Filtering with a gaussian blur was performed prior to thresholding of signal and particle analysis to identify cellular regions of interest (ROIs). These ROIs were overlayed onto the original image. Cells with distinct subcellular localization of C'Dots were counted as a percentage of total cells. Other cells had saturated or non-distinct signal. Cells with C'Dot signal in with a rim phenotype were also quantified by-eye. Two blinded individuals quantified the images and averaged consensus data was used in the final results.
METHODS: Silica core poly(ethylene glycol) shell (core-shell) nanoparticles covalently encapsulating Cy5 dye (PE G-C'Dots) were created using a modified Stober condensation in water. RGD-C'Dots were created by surface functionalizing C'Dot surface with amino acid motifs that bind to the extracellular RGD domain of integrin proteins. Skeletally mature C57BL/6J mice age 16-18 weeks were used for these studies (n=4-5/group/sex). C'Dot Injections: Under inhaled isoflurane anesthesia, PEG- or RGD-C'Dots were injected subcutaneously above the third metatarsal (MT3) in the mouse hind paw at a concentration of 10 μM (FIG. 9). C'Dots were incubated for 45 minutes with mice allowed normal cage activity. Pre-incubation with Dyngo-4a (Abcam) or Methyl-β-cyclodextrin (Sigma Aldrich) for 30 minutes prior to C'Dot injection was used to inhibit dynamin activity or cholesterol lipid raft formation in treated groups. Imaging: After incubation, the MT3 was surgically isolated and stabilized using a metal 3-pin system in re-anesthetized mice'. […] Image Quantification: Mean intensity and cell count of the C'Dot tagged osteocytes were quantified in ImageJ (NIH) using 3D segmentation and were normalized to background intensity. Subcellular localization of C'Dots was quantified by eye from a single frame of the first z-stack of each clearance experiment. […]

Test [3] relates to osteocytes. Kind of test: Combined acute and extended C'Dot clearance from osteocytes in non-drugged and drugged groups. The settings on record: for impact on combined acute and extended C'Dot clearance (FIG. 18): male mice; for impact on combined acute and extended C'Dot clearance (FIG. 19): male mice (so in the source). How it is done:
Osteocyte C'Dot Endocytosis and Metabolism: C'Dots and their rapid uptake and clearance from osteocytes was used to study endocytosis in living bone tissue. In endocytosis experiments, different drugs are preincubated in the foot (injected in the same manner) prior to C'Dot application and incubation. Drugs to target different types of endocytic pathways, including non-receptor mediated endocytosis and clathrin mediated endocytosis, were used. The same clearance imaging was performed to see how the drugs impact the cellular uptake and retention of the nanoparticles over time.
Additionally, this experiment was performed again with a short, 5 minute incubation and more rapid imaging to see what the acute impacts of the drugs were on C'Dot uptake.

“Also recorded” adds a separate entry of the source.

On to `O=C(N/N=C/c1cc(O)c(O)cc1O)c1cc2ccccc2cc1O` [Dyngo4a], for which the “change of PEG-C'Dot clearance from untreated control” value with osteocytes [1] (PEG-C'Dots, males and females, Dyngo4a preincubation) is recorded as “neither males or females having significant change”. Moreover, the “changes in uptake and retention of C'Dots into osteocytes (FIG. 17)” value with osteocytes [1] was “significant changes in uptake and retention”. The “RGD-C'Dot signal at the end of the imaging experiment” value with osteocytes [1] (female mice, Dyngo4a preincubation) is reported as “near zero by the end of the experiment”; with osteocytes [1] (male mice, Dyngo4a preincubation), “maintained until the end of the imaging experiment”. Moreover, the “number of cells visualized and quantified at the initial imaging timepoint compared to untreated control” value is “no statistically significant impact” in the test with osteocytes [1] (female mice) and “significantly higher” in the test with osteocytes [1] (male mice). In addition, in the test with osteocytes [1] (male mice, Dyngo4a pre-incubation), the “RGD C'Dot signal intensity and retention compared to untreated control” value was “significantly increased”. For the same molecule, the “change in cells with discrete localization of RGD C'Dot signal after drug pre-incubation” value in the test on osteocytes [2] (females, pre-incubation with drug) is recorded as “non-significant decrease; also recorded: no statistically significant impact”. The “cells with discrete localization of RGD C'Dot signal after drug pre-incubation” value with osteocytes [2] (males, pre-incubation with drug) turned out to be 25%. Also, the “impact on combined acute and extended C'Dot clearance (FIG. 18)” value in the test on osteocytes [3] was “has an impact only on the RGD C'Dots”. Moreover, the “impact on combined acute and extended C'Dot clearance (FIG. 19)” value in the test on osteocytes [3] was “does not have an impact on either C'Dot type”.

Take Methyl-β-cyclodextrin [MβCD]: the “changes in uptake and retention of C'Dots into osteocytes (FIG. 17)” value in the test on osteocytes [1] was “significant changes in uptake and retention”. The “RGD C'Dot signal compared to untreated control” value is “significant increase” in the test on osteocytes [1] (female group, MβCD pre-incubation); “significant increase” in the test with osteocytes [1] (male group, MβCD pre-incubation); “no effect” with osteocytes [1] (male group, MβCD pre-incubation, listed as M (3CD)). Further, in the test on osteocytes [1] (male and female PEG C'Dot groups, MβCD pre-incubation), the “PEG C'Dot signal compared to untreated control” value is recorded as “only males retained a significant increase in signal”. Also, in the test on osteocytes [2] (any group), the “change in percentage of cells with subcellular localization after drug pre-incubation” value was “did not significantly change”. In addition, the “impact on combined acute and extended C'Dot clearance (FIG. 18)” value in the test on osteocytes [3] was “has an impact on both C'Dot types”. The “impact on combined acute and extended C'Dot clearance (FIG. 19)” value in the test on osteocytes [3] is on record as “has an impact on both C'Dot types”.

The record behind these values is US20260224756A1, “Methods Of Cellular Imaging And Inorganic Nanoimaging Agents For Same” (Cornell University, priority 2023, published 2026).
